Laboratory results reported in BindingDB's records for doi:10.1021/acs.jnatprod.8b00318 (Indian Institute of Integrative Medicine (Csir), 2019).

How the values were obtained:
[1] = biological target: Prostaglandin G/H synthase 1 (Ovis aries) (UniProt P05979); test: Inhibition of ovine COX1 assessed as reduction in prostaglandin E2 production incubated for 10 mins before arachidonic acid addition and measured after 25 mins by LC-MS/MS analysis
[2] = biological target: Prostaglandin G/H synthase 2 (Homo sapiens) (UniProt P35354); test: Inhibition of COX2 (unknown origin) assessed as reduction in prostaglandin E2 production incubated for 10 mins before arachidonic acid addition and measured after 25 mins by LC-MS/MS analysis
Sequence of Prostaglandin G/H synthase 2 (Homo sapiens) (P35354 whole entry, looked up): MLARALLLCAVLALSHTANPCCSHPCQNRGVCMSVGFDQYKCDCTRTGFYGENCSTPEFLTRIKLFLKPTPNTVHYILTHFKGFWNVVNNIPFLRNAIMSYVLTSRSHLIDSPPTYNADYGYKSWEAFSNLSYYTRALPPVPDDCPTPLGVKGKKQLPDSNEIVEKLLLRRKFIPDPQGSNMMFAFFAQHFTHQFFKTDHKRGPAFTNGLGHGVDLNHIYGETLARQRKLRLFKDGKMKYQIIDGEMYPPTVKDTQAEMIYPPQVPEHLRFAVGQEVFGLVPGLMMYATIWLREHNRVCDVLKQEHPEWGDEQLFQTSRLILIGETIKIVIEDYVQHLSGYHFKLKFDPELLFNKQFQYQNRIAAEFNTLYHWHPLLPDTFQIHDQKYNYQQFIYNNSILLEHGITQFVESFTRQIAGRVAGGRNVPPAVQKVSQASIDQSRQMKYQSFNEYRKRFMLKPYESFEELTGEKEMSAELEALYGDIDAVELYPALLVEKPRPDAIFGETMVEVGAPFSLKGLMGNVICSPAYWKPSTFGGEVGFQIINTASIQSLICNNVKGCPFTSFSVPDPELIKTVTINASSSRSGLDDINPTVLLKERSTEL

IC50 [1]: 31 µM
IC50 [2]: 66.1 µM
SMILES: COC(=O)[C@@H](C)c1ccc2c(C)cc(O)c(C)c2c1
